From patent publication US8609847B2, “Dihydroquinolinone derivatives” (Taisho Pharmaceutical Co., Ltd, priority 2009, dated 2013)

How the values were obtained:
[1] = molecular target: T1, human H3 receptor (Homo sapiens, UniProt Q9Y5N1); test: H3 Receptor Binding Test; settings: 50% inhibition of R(−)-α-methyl[3H]histamine (1 nM) binding; membrane preparation of human H3 receptor-expressing CHO-K1 cells
T1 construct: purchased Perkin Elmer ES-392-M400UA; host or cells: CHO-K1 cells (recombinant expression), membrane preparation
T1 sequence (Q9Y5N1 whole entry): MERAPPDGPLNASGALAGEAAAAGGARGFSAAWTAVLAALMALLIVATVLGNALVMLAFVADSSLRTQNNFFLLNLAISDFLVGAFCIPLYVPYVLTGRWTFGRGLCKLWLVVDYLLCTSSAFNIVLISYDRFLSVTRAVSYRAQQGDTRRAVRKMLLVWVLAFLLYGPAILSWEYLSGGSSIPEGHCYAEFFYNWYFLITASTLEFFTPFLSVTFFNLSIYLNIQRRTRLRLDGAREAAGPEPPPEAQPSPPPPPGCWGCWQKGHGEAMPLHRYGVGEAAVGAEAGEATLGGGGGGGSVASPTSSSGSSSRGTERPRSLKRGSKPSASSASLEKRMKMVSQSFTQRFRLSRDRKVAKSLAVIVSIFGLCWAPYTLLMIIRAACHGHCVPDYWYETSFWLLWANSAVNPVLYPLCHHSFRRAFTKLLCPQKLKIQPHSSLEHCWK

[2] = molecular target: T1, human H3 receptor; test: [35S]GTP-γ-S Binding Test; type: biochemical; settings: 50% inhibition of [35S]GTP-γ-S (0.2 nM) binding in presence of 10 nM R(−)-α-methylhistamine; human H3 receptor membrane preparation
Method: The same human H3 receptor membrane preparation as used in Test Example 1 (7.5 μg protein/200 μl), 3 μM GDP, 10 nM R(−)-α-methylhistamine and a test compound were reacted at 30° C. for 20 minutes. After completion of the reaction, [^35S]GTP-γ-S (0.2 nM) was added and reacted for an additional 30 minutes. After completion of the reaction, the reaction mixture was subjected to suction filtration through a glass filter (GF/C). The glass filter was washed three times with 20 mM HEPES washing solution (pH 7.4) containing 100 mM sodium chloride and 3 mM magnesium chloride. After washing, the glass filter was dried and a scintillator was added thereto, followed by measurement of radioactivity on the filter using a liquid scintillation counter. Binding of [^35S]GTP-γ-S in the absence of R(−)-α-methylhistamine was defined as non-specific binding, and the difference between total binding in the presence of R(−)-α-methylhistamine and non-specific binding was defined as specific binding of [^35S]GTP-γ-S. Fixed concentrations of [^35S]GTP-γ-S (0.2 nM) and R(−)-α-methylhistamine (10 nM) were reacted under the above conditions with each test drug at various concentrations to obtain an inhibition curve. The inhibition curve was used to determine the concentration (IC50) of each test drug required for 50% inhibition of [^35S]GTP-γ-S binding.

Structure (SMILES) | melting point | IC50 [1] | IC50 [2]
Cl.O=C1CCc2cc(OC3CCN(C4CCC4)CC3)ccc2N1c1ccc(F)cc1 | > 250 °C |  | 
C[C@@H]1CCCN1CCCOc1ccc2c(c1)CCC(=O)N2c1ccc(C(=O)N(C)C)cc1 [Compound No. 13, N,N-dimethyl-4-[6-{3-[(2R)-2-methylpyrrolidin-1-yl]propoxy}-2-oxo-3,4-dihydroquinolin-1(2H)-yl]benzamide] |  | 8300 pM | 620 pM
O=C1CCc2cc(OC3CCN(C4CCC4)CC3)ccc2N1c1ccc(F)cc1 [Compound No. 60, 6-[(1-cyclobutylpiperidin-4-yl)oxy]-1-(4-fluorophenyl)-3,4-dihydroquinolin-2(1H)-one] |  | 800 pM | 230 pM
O=C1CCc2cc(OC3CCN(C4CCC4)CC3)ccc2N1c1cnc2ccccc2c1 [Compound No. 58, 6-[(1-cyclobutylpiperidin-4-yl)oxy]-3,4-dihydro-2H-1,3′-biquinolin-2-one] |  | 1600 pM | 400 pM
C[C@@H]1CCCN1CCCOc1ccc2c(c1)CCC(=O)N2c1ccc(F)cc1 [Compound No. 6, 1-(4-fluorophenyl)-6-{3-[(2R)-2-methylpyrrolidin-1-yl]propoxy}-3,4-dihydroquinolin-2(1H)-one] |  | 1100 pM | 280 pM

More lines, now with the values ahead:

melting point | IC50 [1] | IC50 [2] | Structure (SMILES)
 | 600 pM | 160 pM | O=C1CCc2cc(OC3CCN(C4CCC4)CC3)ccc2N1c1ccccc1 [Compound No. 72, 6-[(1-cyclobutylpiperidin-4-yl)oxy]-1-phenyl-3,4-dihydroquinolin-2(1H)-one]
 | 1000 pM | 230 pM | N#Cc1ccc(N2C(=O)CCc3cc(OC4CCN(C5CCC5)CC4)ccc32)cc1 [Compound No. 73, 4-{6-[(1-cyclobutylpiperidin-4-yl)oxy]-2-oxo-3,4-dihydroquinolin-1(2H)-yl}benzonitrile]
 | 650 pM | 200 pM | O=C1CCc2cc(OC3CCN(C4CCC4)CC3)ccc2N1c1cccc(F)c1 [Compound No. 69, 6-[(1-cyclobutylpiperidin-4-yl)oxy]-1-(3-fluorophenyl)-3,4-dihydroquinolin-2(1H)-one]
